In article PMC10407255, “Comparison of activity, structure, and dynamics of SF-1 and LRH-1 complexed with small molecule modulators” (The Journal of Biological Chemistry, 2023):
Like-named read-outs stand apart in the source and are kept apart here.

Tests used:
[1] = target: T1, SF-1 (Homo sapiens, UniProt Q13285); test: Luciferase reporter assay, SF-1, HeLa cells; format: cell-based; conditions: for SF-1 activation in luciferase reporter assay: small molecule at 0.1, 1, and 10 μM, relative to DMSO control; for EC50: HeLa cells, ~24 h; for luciferase signal at highest concentration: cells treated with 3e-5 M, potentially indicating cell toxicity or compound insolubility, data excluded; for maximum activation: normalized relative to DMSO control
T1 construct: expressed in transfected cells; host or cells: HeLa
T1 sequence (Q13285 whole entry): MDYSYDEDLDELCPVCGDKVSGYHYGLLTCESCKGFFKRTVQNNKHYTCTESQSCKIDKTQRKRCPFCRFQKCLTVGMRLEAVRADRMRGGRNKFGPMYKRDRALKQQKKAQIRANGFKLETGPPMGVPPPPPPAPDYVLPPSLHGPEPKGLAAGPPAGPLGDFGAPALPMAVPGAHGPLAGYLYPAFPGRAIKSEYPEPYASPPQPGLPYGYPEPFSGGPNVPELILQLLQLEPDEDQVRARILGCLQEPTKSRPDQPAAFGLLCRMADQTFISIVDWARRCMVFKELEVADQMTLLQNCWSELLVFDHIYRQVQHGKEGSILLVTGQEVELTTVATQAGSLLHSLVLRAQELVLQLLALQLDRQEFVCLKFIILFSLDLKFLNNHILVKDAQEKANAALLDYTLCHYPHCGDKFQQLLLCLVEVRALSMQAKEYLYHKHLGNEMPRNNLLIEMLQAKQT
Description: (§1) Reporter assays were conducted as described previously ([47], [52], [53]). Briefly, HeLa cells were seeded at ∼7500 to 10,000 cells per well in 96-well plates (white-walled, clear bottom) in MEMα + 10% FBS – charcoal/dextran treated. Once cells reached 80 to 90% confluence, they were transfected with LRH-1 (in pCI vector, 5 ng/well) or SF-1 (in pcDNA vector, 5 ng/well), a reporter plasmid with an NR5A response element derived from the SHP promoter cloned upstream of Firefly Luciferase (in pGL3-Basic vector, 50 ng/well), and a plasmid expressing Renilla Luciferase constitutively from a CMV promoter (1 ng/well). Cells were transfected with FuGENE at a ratio of 3:1 (FuGENE:DNA). Twenty-four hours after transfection, compounds were diluted in Opti-MEM and introduced to cells at the final concentrations indicated in figures (final DMSO concentration was 0.37%). Luciferase signal was measured after ∼24 h using the DualGlo kit (Promega) with a BioTek Neo plate reader. Each experiment was conducted with three biological replicates, each with three technical replicates averaged prior to data analysis. Firefly Luciferase signal for each well was divided by the well’s Renilla Luciferase signal intensity and then normalized relative to the DMSO control. Data were analyzed with GraphPad Prism (version 9) using a stimulating dose–response curve (Hill slope = 1).

[2] = target: T2, SF-1 LBD (Homo sapiens, UniProt Q13285); test: Differential scanning fluorimetry (thermal shift assay); format: binding; conditions: for Tm (melting temperature): SF-1 LBD pre-exchanged with DLPC, incubated with small molecule overnight; for positive shift in melting temperature: relative to the DLPC phospholipid control
T2 construct: transformed with the SF-1 LBD (amino acids 218–461) in the pLIC-His vector; made in house; host or cells: E. coli BL21(DE3)-pLysS
T2 sequence (Q13285 218-461): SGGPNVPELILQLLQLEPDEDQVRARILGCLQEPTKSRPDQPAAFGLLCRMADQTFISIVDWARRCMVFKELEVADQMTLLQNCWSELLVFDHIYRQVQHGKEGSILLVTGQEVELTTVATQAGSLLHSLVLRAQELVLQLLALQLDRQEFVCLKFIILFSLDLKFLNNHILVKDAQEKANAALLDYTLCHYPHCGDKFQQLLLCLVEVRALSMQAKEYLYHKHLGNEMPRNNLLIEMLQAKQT
Description: Purified SF-1 LBD, pre-exchanged with DLPC (0.2 mg/ml), was combined with small molecules overnight at 4 °C in assay buffer. SYPRO orange dye was added to the complexes the next day, at a final dilution of 1:1000. Complexes were heated at a rate of 0.5 °C/minute on a StepOne Plus thermocycler, using the ROX filter for fluorescence detection. The melting temperature (Tm, 50% unfolding) was calculated using the Bolzman equation GraphPad Prism (version 9). Assays were conducted with nine technical replicates over three experiments.

[3] = target: T3, LRH-1 (Homo sapiens, UniProt O00482); test: Luciferase reporter assay, LRH-1, HeLa cells; format: cell-based; conditions: for specificity for LRH-1 over SF-1 in reporter assays: 0.1, 1, and 10 μM, LRH-1 vs SF-1 reporter; for LRH-1 activation in luciferase reporter assay: small molecule at 0.1, 1, and 10 μM, relative to DMSO control
T3 construct: expressed in transfected cells; host or cells: HeLa
T3 sequence (O00482 whole entry): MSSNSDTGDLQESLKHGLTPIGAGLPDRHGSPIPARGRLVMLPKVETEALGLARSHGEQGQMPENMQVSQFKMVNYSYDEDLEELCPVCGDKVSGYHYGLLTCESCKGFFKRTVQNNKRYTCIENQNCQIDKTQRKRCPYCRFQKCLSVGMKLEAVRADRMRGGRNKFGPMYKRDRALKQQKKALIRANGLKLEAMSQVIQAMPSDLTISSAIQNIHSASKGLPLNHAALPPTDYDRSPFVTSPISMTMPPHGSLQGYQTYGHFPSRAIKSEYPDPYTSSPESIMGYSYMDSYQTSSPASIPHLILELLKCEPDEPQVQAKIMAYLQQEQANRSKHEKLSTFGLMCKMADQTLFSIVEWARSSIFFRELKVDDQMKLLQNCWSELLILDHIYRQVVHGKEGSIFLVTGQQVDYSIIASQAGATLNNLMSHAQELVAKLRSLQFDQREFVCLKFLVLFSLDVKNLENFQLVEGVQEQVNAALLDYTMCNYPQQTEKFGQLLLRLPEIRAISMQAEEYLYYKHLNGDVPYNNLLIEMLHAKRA
Description: as §1

[4] = target: T4, L265M SF-1 mutant (Homo sapiens, UniProt Q13285, L265M); test: Luciferase reporter assay, L265M SF-1 mutant; format: cell-based; conditions: 0.1, 1, and 10 µM, relative to DMSO control
T4 construct: expressed in transfected cells; host or cells: HeLa
T4 sequence (Q13285 whole entry L265M): as the sequence (Q13285 whole entry) above, with L265M counted along it
Description: as §1, with “1). […]” for “1).”

[5] = target: T5, SF-1 LBD T272V (Homo sapiens, UniProt Q13285, T272V); test: FP assay (forward binding and competition), SF-1 T272V; conditions: for effect of deep pocket mutation on binding affinity: T272 mutant compared to WT, FP competition
T5 construct: transformed with the SF-1 LBD (amino acids 218–461) in the pLIC-His vector; His (pLIC-His vector); made in house
T5 sequence (Q13285 218-461 T272V): as the sequence (Q13285 218-461) above, with T55V counted along it
Description: (§2) FP assays were performed as described previously ([38], [47], [53]). Briefly, experiments were conducted in black, polystyrene, non-binding surface 384-well plates (Corning Inc., Corning, NY) with 30 μl volumes in assay buffer (150 mM NaCl, 20 mM Tris-HCl, 5% glycerol, pH 7.4). […] Polarization was monitored on a Neo plate reader (Biotek, Winooski, VT) at an excitation/emission wavelength of 485/528 nm. Plates were incubated overnight at 4 °C and centrifuged at 2000g for 2 min before polarization measurement. Nine technical replicates were conducted over three experiments and compiled binding data were baseline-corrected to wells with no protein and fit with a one-site binding curve in GraphPad Prism version 7 (GraphPad, Inc, La Jolla, CA). 6N conjugated to fluorescein amidite (FAM) (10 nM/well – 0.8 times the affinity of SF-1 for 6N-FAM) was incubated with SF-1 LBD (25 nM/well – 60% of the forward binding Bmax). Unlabeled compounds were added at concentrations indicated in figures with DMSO in each well held constant at 6.7% v/v. Each experiment was performed two or three times with four technical replicates each. Technical replicates were averaged and normalized independently prior to final data analysis.
(§3) All mutations other than L265M were introduced using the QuikChange II Site-Directed Mutagenesis Kit (Agilent). The Q5 Site-Directed Mutagenesis Kit (New England Biolabs) was used to generate the L265M mutant. All constructs were sequenced prior to use.

[6] = target: T6, SF-1 LBD K440A (Homo sapiens, UniProt Q13285, K440A); test: FP assay (forward binding and competition), SF-1 K440A
T6 construct: transformed with the SF-1 LBD (amino acids 218–461) in the pLIC-His vector; His (pLIC-His vector); made in house
T6 sequence (Q13285 218-461 K440A): as the sequence (Q13285 218-461) above, with K223A counted along it
Description: as §2
All mutations other than L265M were introduced using the QuikChange II Site-Directed Mutagenesis Kit (Agilent). […]

[7] = target: T2, SF-1 LBD; test: FP assay (6N-FAM forward binding and competition), wild-type SF-1; conditions: for Ki: FP competition with 10 nM 6N-FAM, 25 nM SF-1 LBD, 95% confidence intervals in brackets, read-out: Ki (inhibition constant)
Description: as §2

[8] = target: T7, SF-1 LBD M268L (Homo sapiens, UniProt Q13285, M268L); test: FP assay (forward binding and competition), SF-1 M268L; conditions: for effect of deep pocket mutation on binding affinity: M268 mutant compared to WT, FP competition
T7 construct: transformed with the SF-1 LBD (amino acids 218–461) in the pLIC-His vector; His (pLIC-His vector); made in house
T7 sequence (Q13285 218-461 M268L): as the sequence (Q13285 218-461) above, with M51L counted along it
Description: as §2, §3

[9] = target: T8, SF-1 LBD Y436F (Homo sapiens, UniProt Q13285, Y436F); test: FP assay (forward binding and competition), SF-1 Y436F; conditions: for effect of pocket mouth mutation Y436 on binding affinity: compared to WT, FP competition
T8 construct: transformed with the SF-1 LBD (amino acids 218–461) in the pLIC-His vector; His (pLIC-His vector); made in house
T8 sequence (Q13285 218-461 Y436F): as the sequence (Q13285 218-461) above, with Y219F counted along it
Description: as §2, §3

[10] = target: T9, CysLite SF-1 (steroidogenic factor-1 ligand binding domain, amino acids 218-461, C247S, C412S) (human, UniProt Q13285 218-461, C247S | C412S); test: crystal structure; cleaved SF-1 CysLite (~5 mg/ml) incubated with 4-fold molar excess of TIF2 peptide at room temperature for 2 h; hanging drop vapor diffusion at 4 °C, Na acetate pH 4.6, glycerol, PEG 4000; crystals soaked 2 days with 6N-10CA; 2.59 Å; conditions: both partners purified
T9 construct: Steroidogenic factor-1 (SF-1); Expressed from the pLic-His vector; His tag cleaved with tobacco etch virus protease; In the crystal the pocket holds 6N-10CA (soaked in) and a bacterial phospholipid modelled as DPPE; also called SF-1 LBD; SF-1 CysLite; source: E. coli BL21(DE3)-pLysS, purified (HisTrap, TEV cleavage, second HisTrap, SEC)
T9 sequence (Q13285 218-461 C247S/C412S): as the sequence (Q13285 218-461) above, with C30S, C195S counted along it

[11] = 95% confidence intervals in brackets, read-out: EC50 (half maximal effective concentration)

C=C(c1ccccc1)C12CCC(OC(N)=O)C1CC(CCCCCC)=C2c1ccccc1 (stereo not shown) [3N]
SF-1 activation in luciferase reporter assay [1]: reduced SF-1 activity

CCCCCCCCCCCC(=O)OC[C@H](COP(=O)([O-])OCC[N+](C)(C)C)OC(=O)CCCCCCCCCCC [DLPC, 1,2-dilauroyl-sn-glycero-3-phosphocholine, reference compound]
Tm (melting temperature) [2]: 52.2 °C

C=C(c1ccccc1)[C@@]12CC[C@H](NC(C)=O)C1CC(CCCCCCCCCC(=O)O)=C2c1ccccc1 (mixture of isomers) [2N-10CA]
specificity for LRH-1 over SF-1 in reporter assays [3]: specificity for LRH-1 was largely preserved
LRH-1 activation in luciferase reporter assay [3]: improved agonism
activation of L265M SF-1 mutant [4]: failed to activate

C=C(c1ccccc1)[C@@]12CC[C@H](NC(N)=O)C1CC(CCCCCCCCCC(=O)O)=C2c1ccccc1 (mixture of isomers) [4N-10CA]
specificity for LRH-1 over SF-1 in reporter assays [3]: specificity for LRH-1 was largely preserved
LRH-1 activation in luciferase reporter assay [3]: improved agonism

C=C(c1ccccc1)C12CCC(NC(C)=O)C1CC(CCCCCC)=C2c1ccccc1 (stereo not shown) [2N]
LRH-1 activation in luciferase reporter assay [3]: activated LRH-1
SF-1 activation in luciferase reporter assay [1]: without activating SF-1

C=C(c1ccccc1)[C@@]12CC[C@H](NS(N)(=O)=O)[C@@H]1CC(CCCCCCCCCC(=O)O)=C2c1ccccc1 (racemic) [6N-10CA]
effect of deep pocket mutation on binding affinity [5]: decreased SF-1 binding affinity
effect of K440A mutation on binding affinity ([6]; compared to WT, FP competition): increased affinity for 6N-10CA was statistically insignificant
Ki [7]: 60 nM
affinity for SF-1 compared with LRH-1 ([7]; SF-1 Ki (Fig. 3C) vs LRH-1 value of ref 47): over two orders of magnitude lower
improvement in affinity of 6N-10CA over 10CA ([7]; SF-1 binding, FP competition): ~4 fold
increase in affinity of 6N-10CA over 6N ([7]; SF-1 binding, FP competition): ~20 fold
effect of deep pocket mutation on binding affinity [8]: decreased SF-1 binding affinity
EC50 ([1]; read-out: EC50): 100 nM
potency of 6N-10CA relative to 10CA (more potent) ([1]; SF-1 luciferase reporter): 16 fold
potency for SF-1 compared with LRH-1 ([1]; SF-1 vs LRH-1 value of ref 47): nearly two times less
luciferase signal at highest concentration [1]: drastic decrease in overall signal
maximum activation [1]: ~1.7
Tm (melting temperature) [2]: 58.3 °C
positive shift in melting temperature [2]: ~6.5 °C
effect of pocket mouth mutation Y436 on binding affinity [9]: minimal impact

C=C(c1ccccc1)[C@@]12CC[C@H](NS(N)(=O)=O)[C@@H]1CC(CCCCCCCCCC(=O)Nc1ccc3c(c1)C(=O)OC31c3ccc(O)cc3Oc3cc(O)ccc31)=C2c1ccccc1 (racemic) [6N-FAM, reference compound]
Kd ([5]; T272V, 10 nM 6N-FAM, read-out: probe affinity determined with forward binding assays): 10.9 nM
Kd ([6]; K440A, 10 nM 6N-FAM, read-out: probe affinity determined with forward binding assays): 5.5 nM
Kd ([7]; WT SF-1 LBD, 10 nM 6N-FAM, read-out: probe affinity determined with forward binding assays): 12 nM
Kd ([8]; M268L, 10 nM 6N-FAM, read-out: probe affinity determined with forward binding assays): 19.3 nM
Kd ([9]; Y436F, 10 nM 6N-FAM, read-out: probe affinity determined with forward binding assays): 9.9 nM

C=C(c1ccccc1)[C@@]12CC[C@@H](O)[C@@H]1CC(CCCCCCCCCC(=O)O)=C2c1ccccc1 (racemic) [10CA]
effect of deep pocket mutation on binding affinity [5]: decreased SF-1 binding affinity
Ki [7]: 250 nM
effect of deep pocket mutation on binding affinity [8]: decreased SF-1 binding affinity
EC50 [1, 11]: 1600 nM
Tm (melting temperature) [2]: 54.5 °C
positive shift in melting temperature [2]: ~2 °C
effect of pocket mouth mutation Y436 on binding affinity [9]: decreased 10CA binding affinity

C=C(c1ccccc1)[C@@]12CC[C@H](NS(N)(=O)=O)[C@@H]1CC(CCCCCC)=C2c1ccccc1 (racemic) [6N]
Ki [7]: 1400 nM
EC50 [1, 11]: 130 nM
luciferase signal at highest concentration [1]: drastic decrease in overall signal
maximum activation [1]: ~1.4
Tm (melting temperature) [2]: 58.6 °C
positive shift in melting temperature [2]: ~6.5 °C
effect of pocket mouth mutation Y436 on binding affinity [9]: minimal impact

C=C(c1ccccc1)C12CCC(NC(N)=O)C1CC(CCCCCC)=C2c1ccccc1 (stereo not shown) [4N]
LRH-1 activation in luciferase reporter assay [3]: activated LRH-1
SF-1 activation in luciferase reporter assay [1]: without activating SF-1

KENALLRYLLDKDD [TIF2 peptide (fragment of the coactivator transcriptional intermediate factor 2)]
binding result [10]: binds
